Test results as given in paper PMC4281207, “Dr-FtsA, an Actin Homologue in Deinococcus radiodurans Differentially Affects Dr-FtsZ and Ec-FtsZ Functions In Vitro” (PLoS ONE, 2014).

Legend:
Dr-FtsZ [1] = biological target: T1, Dr-FtsZ (Deinococcus radiodurans, UniProt Q9RWN5); experiment: malachite green Pi release; [α[…]]-GTP TLC; type: biochemical; settings: PIPES pH 7.5, 50 mM KCl, 2 mM MgCl2, 1 mM GTP (0.5 mM in TLC assay), 37 °C
T1 construct: 42 kDa
T1 sequence (Q9RWN5 1-371): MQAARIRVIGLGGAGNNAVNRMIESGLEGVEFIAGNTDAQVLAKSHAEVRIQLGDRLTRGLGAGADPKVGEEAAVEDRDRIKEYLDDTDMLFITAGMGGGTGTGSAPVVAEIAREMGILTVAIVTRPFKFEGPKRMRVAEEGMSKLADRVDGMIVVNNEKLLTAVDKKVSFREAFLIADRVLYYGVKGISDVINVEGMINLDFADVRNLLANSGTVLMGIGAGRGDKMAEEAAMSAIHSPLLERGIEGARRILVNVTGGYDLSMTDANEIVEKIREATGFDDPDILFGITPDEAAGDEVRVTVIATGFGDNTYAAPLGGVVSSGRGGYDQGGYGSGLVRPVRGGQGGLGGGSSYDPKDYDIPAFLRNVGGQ

Dr-FtsZ [2] = biological target: T1, Dr-FtsZ; experiment: stimulation of GTPase activity; [α[…]]-GTP TLC; type: biochemical; settings: 0.5 mM ATP, 0.5 mM GTP, 2 mM MgCl2, PIPES pH 7.5, 37 °C; activator, site not known; ATP not hydrolysed
Dr-FtsA = biological target: T2, Dr-FtsA (Deinococcus radiodurans, UniProt Q9RWN6); experiment: circular dichroism; transmission electron microscopy of polymers; type: binding; settings: 10 µM ATP (CD) or 1 mM ATP (TEM), 37 °C; 25 mM PIPES pH 7.5, 50 mM KCl, with or without 5 mM MgCl2 (TEM); ATP not hydrolysed
T2 construct: full-length from pBADDFtsA (pBAD/HisA), expressed in E. coli TOP10; His tag removed; 54 kDa
T2 sequence (Q9RWN6 1-517): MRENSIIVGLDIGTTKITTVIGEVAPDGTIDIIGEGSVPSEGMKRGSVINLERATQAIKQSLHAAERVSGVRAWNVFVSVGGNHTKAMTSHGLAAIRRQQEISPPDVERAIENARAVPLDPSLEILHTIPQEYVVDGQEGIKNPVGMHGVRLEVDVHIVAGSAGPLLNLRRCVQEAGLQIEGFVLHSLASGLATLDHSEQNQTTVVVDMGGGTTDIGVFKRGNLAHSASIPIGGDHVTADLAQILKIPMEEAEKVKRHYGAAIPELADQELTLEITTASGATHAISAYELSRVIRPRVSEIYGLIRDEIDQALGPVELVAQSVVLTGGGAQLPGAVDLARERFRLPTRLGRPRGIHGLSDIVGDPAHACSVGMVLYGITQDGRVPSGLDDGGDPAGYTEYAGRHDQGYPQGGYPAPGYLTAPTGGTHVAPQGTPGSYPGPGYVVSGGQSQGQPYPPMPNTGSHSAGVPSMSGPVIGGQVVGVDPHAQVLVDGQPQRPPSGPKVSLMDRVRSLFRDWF

SMILES | malachite green Pi release; [α32P]-GTP TLC (Dr-FtsZ [1]) | stimulation of GTPase activity; [α32P]-GTP TLC (Dr-FtsZ [2]) | circular dichroism; transmission electron microscopy of polymers (Dr-FtsA)
Nc1nc2c(ncn2[C@@H]2O[C@H](COP(=O)(O)OP(=O)(O)OP(=O)(O)O)[C@@H](O)[C@H]2O)c(=O)[nH]1 [GTP] | GTPase activity of Dr-FtsZ was stimulated in the presence of Dr-FtsA | – | –
Nc1ncnc2c1ncn2[C@@H]1O[C@H](COP(=O)(O)OP(=O)(O)OP(=O)(O)O)[C@@H](O)[C@H]1O [ATP] | – | the GTPase activity of Dr-FtsZ was stimulated in the presence of ATP (Fig. 2C) | had the correct secondary structure assignment, and interacted with ATP in solution
